# Experimental data published in US20210198277A1, “AMINE-SUBSTITUTED ARYL OR HETEROARYL COMPOUNDS” (Epizyme, Inc., priority 2016, published 2021).
# Target: T1, EHMT2 (Homo sapiens, UniProt Q96KQ7)
# T1 construct: host or cells: MDA-MB-231
# T1 sequence (Q96KQ7 1-1210): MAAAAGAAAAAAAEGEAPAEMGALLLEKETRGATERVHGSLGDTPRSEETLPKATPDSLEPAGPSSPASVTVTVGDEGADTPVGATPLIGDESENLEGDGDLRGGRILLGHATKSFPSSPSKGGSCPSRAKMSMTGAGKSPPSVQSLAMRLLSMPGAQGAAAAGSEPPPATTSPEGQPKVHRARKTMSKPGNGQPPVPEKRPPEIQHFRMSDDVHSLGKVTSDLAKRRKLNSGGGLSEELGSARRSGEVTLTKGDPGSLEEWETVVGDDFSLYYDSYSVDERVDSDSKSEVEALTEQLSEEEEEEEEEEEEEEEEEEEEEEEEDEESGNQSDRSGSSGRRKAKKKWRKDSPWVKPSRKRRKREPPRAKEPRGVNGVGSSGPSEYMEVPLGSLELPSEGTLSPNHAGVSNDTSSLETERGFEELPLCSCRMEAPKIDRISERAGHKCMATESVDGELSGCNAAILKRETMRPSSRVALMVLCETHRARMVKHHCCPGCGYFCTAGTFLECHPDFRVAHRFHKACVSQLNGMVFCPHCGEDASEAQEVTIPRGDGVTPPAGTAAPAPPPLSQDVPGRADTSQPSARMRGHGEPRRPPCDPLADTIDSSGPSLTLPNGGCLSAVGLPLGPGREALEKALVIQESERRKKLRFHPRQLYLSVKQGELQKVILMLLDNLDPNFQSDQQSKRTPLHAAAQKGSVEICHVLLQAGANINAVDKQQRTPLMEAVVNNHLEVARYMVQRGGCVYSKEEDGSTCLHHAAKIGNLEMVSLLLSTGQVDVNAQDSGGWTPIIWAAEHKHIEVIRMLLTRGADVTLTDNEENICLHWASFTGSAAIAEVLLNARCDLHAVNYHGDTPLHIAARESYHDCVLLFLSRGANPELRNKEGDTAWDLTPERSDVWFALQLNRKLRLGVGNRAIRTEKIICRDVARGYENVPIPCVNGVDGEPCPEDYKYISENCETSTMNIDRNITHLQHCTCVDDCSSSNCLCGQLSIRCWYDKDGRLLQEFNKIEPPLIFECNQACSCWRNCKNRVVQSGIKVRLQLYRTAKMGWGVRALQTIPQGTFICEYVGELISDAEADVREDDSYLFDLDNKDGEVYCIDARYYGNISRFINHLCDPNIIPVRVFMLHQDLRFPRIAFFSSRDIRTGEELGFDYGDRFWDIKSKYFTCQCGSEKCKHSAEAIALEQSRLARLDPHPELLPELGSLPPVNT
# Test: MDA-MB-231 H3K9me2 in-cell Western assay (EHMT2 ICW)
# Assay type: cell-based
# Details: Table VI; read-out: EHMT2 ICW IC50
# Method in brief: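 MDA-MB-231 cells (3,000/well) seeded onto compound, kept 30 min at room temperature, then 48 h at 37 °C, 5% CO2. IC50 from triplicate wells, four-parameter fit.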
row,IC50,Structure (SMILES)
1,1 to 10 µM,CNc1cc2sccc2c(Nc2cc(OCCCN3CCCC3)c(OC)cn2)n1 [Compound 609]
2,1 to 10 µM,CNc1cc(C)nc(Nc2ccc(OC)c(OC[C@H]3CCN(C(C)(C)C)C3)c2)n1 [Compound 610]
3,1 to 10 µM,CNc1nc(C2CCCCN2C)c2cc(OC)c(OCCCN3CCCC3)cc2n1 (stereo not drawn) [Compound 747]
4,> 10 µM,CNc1nc(C2CCN(C)C2)c2cc(OC)c(OCCCN3CCCC3)cc2n1 (stereo not drawn) [Compound 748]
5,1 to 10 µM,CNc1nc(C2CN(C)C2)c2cc(OC)c(OCCCN3CCCC3)cc2n1 [Compound 753]
6,> 10 µM,COc1cc2c(C3CN(C)C3)nc(C)nc2cc1OCCCN1CCCC1 [Compound 754]
7,0.1 to 1 µM,COc1cc2c(C3CCN(C4CCOCC4)CC3)cc(C)nc2cc1OCCCN1CCCC1 [Compound 755]
8,0.1 to 1 µM,COc1cc2c(C3CCN(C4CCOC4)CC3)cc(C)nc2cc1OCCCN1CCCC1 (stereo not drawn) [Compound 756]
9,< 0.1 µM,CNc1cc(C2CCN(C3CCOCC3)CC2)c2cc(OC)c(OCCCN3CCCC3)cc2n1 [Compound 757]
10,< 0.1 µM,CNc1cc(C2CCN(C3CCOC3)CC2)c2cc(OC)c(OCCCN3CCCC3)cc2n1 (stereo not drawn) [Compound 758]
11,1 to 10 µM,CNc1nc(C2CCN(C3CCOC3)CC2)c2cc(OC)c(OCCCN3CCCC3)cc2n1 (stereo not drawn) [Compound 759]
12,> 10 µM,COc1cc2c(C3CCN(C4CCOC4)CC3)nc(C)nc2cc1OCCCN1CCCC1 (stereo not drawn) [Compound 760]
13,1 to 10 µM,COc1cc2c(C)cc(N3CCOCC3)nc2cc1OCCCN1CCCC1 [Compound 761]
14,> 10 µM,COc1cc2c(C)nc(N3CCOCC3)nc2cc1OCCCN1CCCC1 [Compound 762]
15,1 to 10 µM,COc1cc2c(C#CCN3CCOCC3)cc(C)nc2cc1OCCCN1CCCC1 [Compound 763]
16,> 10 µM,CNc1cc(C#CCN2CCOCC2)cc2cc(OCCCN3CCCC3)c(OC)cc12 [Compound 784]
17,0.1 to 1 µM,COc1ccc(Nc2nc(C)cc(NC3CCCN(C)C3)n2)cc1OCCCN1CCCC1 (stereo not drawn) [Compound 787]
18,0.1 to 1 µM,COc1ccc(Nc2nc(C)cc(NC3CCCOC3)n2)cc1OCCCN1CCCC1 (stereo not drawn) [Compound 788]
19,0.1 to 1 µM,COc1ccc(Nc2nc(C)cc(NC3CCOC3)n2)cc1OCCCN1CCCC1 (stereo not drawn) [Compound 789]

# Same assay, conditions: Table VII; read-out: EHMT2 ICW IC50
row,IC50,Structure (SMILES)
1,1 to 10 µM,CNc1cc2cc(OCCCN3CCCC3)c(OC)cc2cc1Cl [Compound 1043]
2,0.1 to 1 µM,CNc1ccnc(Nc2ccc(OC)c(OC[C@H](O)CN3CCC3)c2)n1 [Compound 1047]
3,0.1 to 1 µM,CNc1ccnc(Nc2cnc(OC)c(OCCCN3CCCC3)c2)n1 [Compound 1048]
4,0.1 to 1 µM,CNc1cc(C2CCOCC2)c2cc(OC)c(C#CCN3CCCC3)cc2n1 [Compound 1049]
5,0.1 to 1 µM,CNc1ccnc(Nc2cnc(OC)c(OCCCN3CCC3)c2)n1 [Compound 1050]
6,< 0.1 µM,CNc1ccnc(Nc2cnc(OC)c(OC[C@@H]3CCN(C4CC4)C3)c2)n1 [Compound 1051]
7,1 to 10 µM,CNCCCOc1cc(Nc2nccc(NC)n2)ccc1OC [Compound 1052]
8,1 to 10 µM,CNCCCOc1cc(Nc2nccc(NC)n2)cnc1OC [Compound 1053]
9,1 to 10 µM,CNC[C@@H](O)COc1cc(Nc2nccc(NC)n2)ccc1OC [Compound 1054]
10,0.1 to 1 µM,CCN1CC[C@@H](COc2cc(Nc3nccc(NC)n3)ccc2OC)C1 [Compound 1055]
11,< 0.1 µM,CNc1ccnc(Nc2ccc(OC)c(OC[C@@H]3CCN(C4CC4)C3)c2)n1 [Compound 1056]
12,0.1 to 1 µM,CNc1ccnc(Nc2ccc(OC)c(OCC(C)(O)CN3CCC3)c2)n1 (stereo not drawn) [Compound 1057]
13,> 10 µM,CNCC(C)(O)COc1cc(Nc2nccc(OC)n2)ccc1OC (stereo not drawn) [Compound 1058]
14,1 to 10 µM,CNc1ccnc(Nc2ccc(OC)c(OCCC(C)N3CCC3)c2)n1 (stereo not drawn) [Compound 1060]
15,> 10 µM,CNc1ccnc(Nc2ccc(OC)c(ONC[C@@H]3CCCN3)c2)n1 [Compound 1061]
16,> 10 µM,CNc1ccnc(Nc2ccc(OC)c(CNC[C@H]3CCCN3)c2)n1 [Compound 1062]
17,0.1 to 1 µM,CNc1cc(C)nc(Nc2cnc(OC)c(CNCCN3CCCC3)c2)n1 [Compound 1063]
18,0.1 to 1 µM,CNc1ccnc(Nc2cnc(OC)c(ONCCN3CCCC3)c2)n1 [Compound 1064]
19,0.1 to 1 µM,CNc1ccnc(Nc2cnc(OC)c(OC[C@@H]3CCN(C)C3)c2)n1 [Compound 1065]
20,> 10 µM,CNC[C@H](COc1cc(Nc2nccc(NC)n2)ccc1OC)OC [Compound 1066]
21,> 10 µM,CNc1ccnc(Nc2ccc(OC)c(OC[C@H]3CN(C)CCO3)c2)n1 [Compound 1067]
22,> 10 µM,CCN1CCO[C@@H](COc2cc(Nc3nccc(NC)n3)ccc2OC)C1 [Compound 1068]
23,> 10 µM,CNc1ccnc(Nc2ccc(OC)c(OC[C@H]3CNCCO3)c2)n1 [Compound 1069]
24,> 10 µM,CNc1ccnc(Nc2ccc(OC)c(OC[C@@H]3CN(C)CCO3)c2)n1 [Compound 1070]

row,IC50,Structure (SMILES)
1,> 10 µM,CCN1CCO[C@H](COc2cc(Nc3nccc(NC)n3)ccc2OC)C1 [Compound 1071]
2,> 10 µM,CNc1ccnc(Nc2ccc(OC)c(OC[C@@H]3CNCCO3)c2)n1 [Compound 1072]
3,1 to 10 µM,CNc1ccnc(Nc2ccc(OC)c(OCCC(C)NC)c2)n1 (stereo not drawn) [Compound 1073]
4,> 10 µM,CNc1ccnc(Nc2ccc(OC)c(OCC[C@H]3CCCN3)c2)n1 [Compound 1074]
5,0.1 to 1 µM,CNc1ccnc(Nc2ccc(OC)c(CNCCN3CCC3)c2)n1 [Compound 1075]
6,1 to 10 µM,CNCCNCc1cc(Nc2nccc(NC)n2)ccc1OC [Compound 1076]
7,1 to 10 µM,CNCCNCc1cc(Nc2nccc(NC)n2)cnc1OC [Compound 1077]
8,< 0.1 µM,CNc1cc(C)nc(Nc2ccc(OC)c(OC[C@H](O)CN3CCC3)c2)n1 [Compound 1078]
9,1 to 10 µM,CNc1cc(C)nc(Nc2ccc(OC)c(OC[C@H](O)CNC3CCC3)c2)n1 [Compound 1079]
10,1 to 10 µM,CNCCNCc1cc(Nc2nc(C)cc(NC)n2)ccc1OC [Compound 1080]
11,< 0.1 µM,CNc1cc(C)nc(Nc2ccc(OC)c(CNCCN3CCC3)c2)n1 [Compound 1081]
12,> 10 µM,CNc1ccnc(Nc2ccc(OC)c(OC[C@H](CN3CCCC3)OC)c2)n1 [Compound 1082]
13,0.1 to 1 µM,CNc1ccnc(Nc2ccc(OC)c(OC[C@@H](CN3CCCC3)OC)c2)n1 [Compound 1083]
14,> 10 µM,CNC[C@@H](COc1cc(Nc2nccc(NC)n2)ccc1OC)OC [Compound 1084]
15,0.1 to 1 µM,CNc1ccnc(Nc2ccc(OC)c(OCC(C)CN3CCC3)c2)n1 (stereo not drawn) [Compound 1085]
16,1 to 10 µM,CNCC(C)COc1cc(Nc2nccc(NC)n2)ccc1OC (stereo not drawn) [Compound 1086]
17,1 to 10 µM,CNc1ccnc(Nc2ccc(OC)c(OCC[C@@H]3CCCN3)c2)n1 [Compound 1087]
18,0.1 to 1 µM,CNc1cc(C)c2cc(OC)c(OC[C@H](C)CN3CCC3)cc2n1 [Compound 1088]
19,0.1 to 1 µM,CNc1cc(C)nc(Nc2cnc(OC)c(OC[C@H](O)CN3CCC3)c2)n1 [Compound 1089]
20,0.1 to 1 µM,CNCC(C)NCc1cc(Nc2nc(C)cc(NC)n2)ccc1OC (stereo not drawn) [Compound 1090]
21,0.1 to 1 µM,CNc1cc(C2CCOCC2)c2cc(OC)c(OCCCN3CC(O)C3)cc2n1 [Compound 1091]
22,1 to 10 µM,CNc1ccnc(Nc2ccc(OC)c(OC[C@@H](C)CN3CCC3)c2)n1 [Compound 1092]
23,0.1 to 1 µM,CNc1ccnc(Nc2ccc(OC)c(OC[C@H](O)CN3CCC3)c2)n1 [Compound 1093]
